Experiments:
Tg(flk1:GFP) embryos = test: lycat morpholino and mRNA injections, cloche phenotype and GFP scoring in transgenic embryos; format: in vivo, zebrafish; details: for flk1:GFP signals in vessels: 24 hpf; for flk1:GFP signals in vessels / gata1:GFP signal in the blood islands: a345 control, lycat RNA 300 ng/ul; for flk1:GFP signals in vessels / gata1:GFP signal in the blood islands / Wild-type (phenotype), number of embryos / clo (phenotype), number of embryos: d522 0.3 mM; for gata1:GFP signal in the blood islands: gata1:GFP embryos; for Wild-type (phenotype), number of embryos / clo (phenotype), number of embryos: injected into 1- to 2-cell stage Tg(flk1:GFP) embryos, scored at 36 hpf and 48 hpf, a345 0.5 mM, Lycat RNA 0.3 μg/μl
Description: The cloche alleles, clo^m39 and clo^m378 have been previously described (Stainier et al., Development 121:3141, 1995; Stainier et al., Development 123:285, 1996). A new ENU-induced allele, clo^fv087b was also used. Genetic mapping of cloche was carried out using hybrid F1 (Clo^m39×TL, clo^m378×TL, clo^fv087b×WIK). Transgenic lines Tg(flk1:GFP) and Tg(gata1:GFP) (Long et al., Proc. Natl. Acad. Sci. U.S.A. 94:6267, 1997; Cross et al., ArterioScler. Thromb. Vasc. Biol. 23:911, 2003), were crossed with heterozygous clo^fv087b fish to generate transgenic clo^fv087b individuals. Examining cloche phenotypes and the GFP expression of embryos from sibling crossings identified heterozygous clo^fv087b/+ fish with the Tg(flk1:GFP) or Tg(gata1:GFP).
(§1) Four morpholinos were synthesized: three anti-sense morpholinos targeting the zebrafish lycat ATG site (atg): […] (SEQ ID NO:5); the second splicing donor site (d322): […] (SEQ ID NO:6); the third splicing donor site (d522): […] (SEQ ID NO:7); and a control morpholino (a345): […] (SEQ ID NO:8) (Gene Tools, LLC). Zebrafish lycat and mouse lycat were cloned into the pCS2 vector, and capped mRNA was synthesized using mRNA in vitro transcription kits (Ambion Inc., Austin, Tex.). Morpholinos and mRNA were injected into one- or two-cell stage wild-type, clo^fv087b; Tg(flk1:GFP) or clo^fv087b; Tg(gata1:GFP) embryos. Injected embryos were incubated at 28.5° C. for examination of phenotypes or were fixed for in situ hybridization. The bright-field pictures were taken using a Zeiss M12 dissecting microscope, and the fluorescence pictures were taken with a Zeiss Stemi SVII Apo fluorescence microscope.

[1] = test system: scl expression in the ICM; test: scl RNA in situ hybridization in injected embryos; format: in vivo, zebrafish; details: d522 0.3 mM, 0.4 mM, 0.5 mM, 20 hpf, RNA in situ analysis
Source text: FIG. 3. Antisense lycat morpholinos mimic the cloche mutant phenotype and lycat mRNA rescues morpholino mediated knockdown.
as §1
In situ hybridization and antibody staining were done in the presence of blocking solution (Roche, Basil, Switzerland), in the RNA hybridization solution, and antibody staining solution (Schulte-Merker, Looking at embryos, 2002). […]

For “a345: control morpholino: GCAGCGGGCACTGCTGGTGGAAGT (SEQ ID NO:8) (all phosphorodiamidate morpholino (PMO)) [reference compound]”, the “flk1:GFP signals in vessels” value (Tg(flk1:GFP) embryos) was “strong flk1:GFP signals”, the “gata1:GFP signal in the blood islands” value (Tg(flk1:GFP) embryos) was “strong gata1:GFP signal” and the “Wild-type (phenotype), number of embryos” value (Tg(flk1:GFP) embryos) was 65. The “clo (phenotype), number of embryos” value (Tg(flk1:GFP) embryos) was 0.

For “d522: anti-sense morpholino targeting zebrafish lycat third splicing donor site: CTGAACACACACACTGACCGAAGC (SEQ ID NO:7) (all phosphorodiamidate morpholino (PMO))”, the “injected embryos showing a clear cloche phenotype (lack blood cells, vascular endothelium, endocardium)” value (Tg(flk1:GFP) embryos; 0.3 mM d522, 5 nl, Tg(flk1:GFP) embryos, 36 hpf and 48 hpf, 132 out of 150) was 88%, the “flk1:GFP signals in vessels” value (Tg(flk1:GFP) embryos) was “very little flk1:GFP signals” and the “gata1:GFP signal in the blood islands” value (Tg(flk1:GFP) embryos) was “very little gata1:GFP signal”. The “Wild-type (phenotype), number of embryos” value (Tg(flk1:GFP) embryos) was 18, the “clo (phenotype), number of embryos” value (Tg(flk1:GFP) embryos) was 132 and the “scl expression in the ICM” value [1] was “decreased scl”. The “scl expression in the ICM” value ([1]; listed as lycat morpholino) was “reduces expression of Scl in the intermediate cell mass (ICM) in a dose-dependent manner”.

From patent US20100047246A1, “Methods and Compositions for Treating Vascular Disease” (The General Hospital Corporation, priority 2006, published 2010)
